ChEMBL document CHEMBL4052755, “Phosphonodifluoropyruvate is a mechanism-based inhibitor of phosphonopyruvate decarboxylase from Bacteroides fragilis” (Bioorg Med Chem, 2017)
pKi: −log10 of the molar value. Active and inactive are the calls of the source. No cut-off for these calls is given here.

Key:
Pseudomonas putida = assay: Inhibition of recombinant Pseudomonas putida C-terminal His-tagged phosphonatase
Saccharomyces cerevisiae = assay: Inhibition of yeast alcohol dehydrogenase
[1] = Binding affinity to recombinant Bacteroides fragilis phosphonopyruvate decarboxylase using phosphonopyruvate as substrate
Bacteroides fragilis [2] = assay: Irreversible inhibition of recombinant Bacteroides fragilis phosphonopyruvate decarboxylase at 10 to 50 uM using phosphonopyruvate as substrate
Bacteroides fragilis [3] = assay: Irreversible inhibition of recombinant Bacteroides fragilis phosphonopyruvate decarboxylase at 10 uM using phosphonopyruvate as substrate after overnight dialysis
Bacteroides fragilis [4] = assay: Inhibition of recombinant Bacteroides fragilis phosphonopyruvate decarboxylase at 35 uM incubated for 3 mins by UV-Vis spectrophotometric analysis
Bacteroides fragilis [5] = assay: Inhibition of recombinant Bacteroides fragilis phosphonopyruvate decarboxylase at 35 uM incubated for 3 mins by CD spectropolarimetric analysis
Bacteroides fragilis [6] = assay: Inhibition of recombinant Bacteroides fragilis phosphonopyruvate decarboxylase assessed as fluoride ion release up to 75 uM incubated for 30 mins by TISAB 2 solution based ion-selective electrode assay

With `O=C(O)C(O)(O)C(F)(F)P(=O)(O)O` the inhibition (Pseudomonas putida) was “inactive”, the inhibition (Saccharomyces cerevisiae) was “inactive” and the pKi [1] was 6.22. The TDI (Bacteroides fragilis [2]) was “Active”, the inhibition (Bacteroides fragilis [3]) was “Active” and the inhibition (Bacteroides fragilis [4]) was “Active”. For the same compound, the inhibition (Bacteroides fragilis [5]) was “Active” and the inhibition (Bacteroides fragilis [6]) was “Active”.
